Results published in patent US20230295152A1 (SENDA BIOSCIENCES, INC., priority 2019, published 2023).
Read-outs that look alike come from different tables or passages of the source.

Legend:
[1] = Caco-2 Permeability Assay; format: in vitro ADME; conditions: human
Experimental: Preparation of Caco-2 Cells: 50 μL and 25 mL of cell culture medium were added to each well of the Transwell insert and reservoir, respectively. The HTS transwell plates were incubated at 37° C., 5% CO2 for 1 hour before cell seeding. Caco-2 cells were diluted to 6.86×10^5 cells/mL with culture medium and 50 μL of cell suspension were dispensed into the filter well of the 96-well HTS Transwell plate. Cells were cultivated for 14-18 days in a cell culture incubator at 37° C., 5% CO2, 95% relative humidity. Cell culture medium was replaced every other day, beginning no later than 24 hours after initial plating.
Assessment of Cell Monolayer Integrity: Medium was removed from the reservoir and each Transwell insert and replaced with prewarmed fresh culture medium. Transepithelial electrical resistance (TEER) across the monolayer was measured using Millicell Epithelial Volt-Ohm measuring system (Millipore, USA). The Plate was returned to the incubator once the measurement was done. The TEER value was calculated according to the following equation:
TEER measurement(ohms)×Area of membrane(cm^2)=TEER value(ohm·cm^2)
TEER value should be greater than 230 ohm·cm^2, which indicates the well-qualified Caco-2 monolayer.
Preparation of Solutions: 2 mM stock solutions in DMSO of control compounds were prepared and diluted with HBSS (10 mM HEPES, pH 7.4) to get 10 μM working solution. 0.2 mM stock solutions of test compounds in DMSO were prepared and diluted with HBSS (10 mM HEPES, pH 7.4 with 0.5% BSA) to get 1 μM working solution. Metoprolol, erythromycin and cimetidine were used as control compounds.
Performing the Drug Transport Assay: The Caco-2 plate was removed from the incubator. The monolayer was washed twice with pre-warmed HBSS (10 mM HEPES, pH 7.4). The plate was incubated at 37° C. for 30 minutes. To determine the rate of drug transport in the apical to basolateral direction, 125 μL of the working solution was added to the Transwell insert (apical compartment). A 50 μL sample was transferred immediately from the apical compartment to 200 μL of acetonitrile containing IS (100 nM alprazolam, 200 nM Caffeine and 100 nM tolbutamide) in a new 96-well plate as the initial donor sample (A-B) and it was vortexed at 1000 rpm for 10 minutes. The wells in the receiver plate (basolateral compartment) were filled with 235 μL of transport buffer. To determine the rate of drug transport in the basolateral to apical direction, 285 μL of the working solution were added to the receiver plate wells (basolateral compartment). A 50 μL sample was transferred immediately from the basolateral compartment to 200 μL of acetonitrile containing IS (100 nM alprazolam, 200 nM Caffeine and 100 nM tolbutamide) in a new 96-well plate as the initial donor sample (B-A) and it was vortexed at 1000 rpm for 10 minutes. The Transwell insert (apical compartment) was filled with 75 μL of transport buffer. The apical to basolateral direction and the basolateral to apical direction need to be done at the same time. The plates were incubated at 37° C. for 2 hours. At the end of the incubation, 50 μL samples from donor sides (apical compartment for Ap→B1 flux, and basolateral compartment for B1→Ap) and receiver sides (basolateral compartment for Ap→B1 flux, and apical compartment for B1→Ap) were transferred to wells of a new 96-well plate, followed by the addition of 4 volume of acetonitrile containing IS (100 nM alprazolam, 200 nM Caffeine and 100 nM tolbutamide). Samples were vortexed for 10 minutes, 50 μL samples were transferred to wells of a new 96-well plate, followed by the addition of 50 μL Hepes and 200 μL IS. A11 samples were vortexed for 10 minutes, and then centrifuged at 3,220 g for 40 minutes. An aliquot of 150 μL of the supernatant was mixed with an appropriate volume of ultra-pure water before LC-MS/MS analysis.
Data analysis: All calculations were carried out using Microsoft Excel. Peak areas were determined from extracted ion chromatograms. […]

[2] = Plasma Protein Binding with Ultracentrifugation Method, human; format: in vitro ADME; conditions: for fraction unbound at 30 min, 1 μM: human plasma, read-out: Human plasma protein binding (% bound); for fraction unbound at 5.5 h, 1 μM: human, plasma, read-out: Plasma Protein Binding PPB (h) % (converted)
Experimental: The frozen plasma (stored at −80° C.) was thawed in a 37° C. water bath, followed by centrifugation at 3,220 g for 10 minutes to remove clots. The supernatant was removed into a new tube as the spun plasma. The spun plasma was pre-warmed in a 37° C. water bath for 10 minutes. The stock solutions of test compounds were diluted to 200 μM in DMSO, and then spiked into the plasma. Duplicate samples were prepared. The final concentration of compound was 1.0 μM. The final concentration of organic solvent was 0.5%. Warfarin was used as positive control in the assay. 1.0 mL of the spiked plasma was transferred to a new balance ultracentrifuge tube. Samples were incubated at 37° C., 5% CO2 for 30 minutes. After incubation, the balance ultracentrifuge tubes were centrifuged at 600,000 g for 5.5 hours at 37° C. After centrifugation, 50 μL solution was removed from the center of the ultracentrifuge tubes as the post-ultracentrifugation samples, followed by the addition of 50 μL blank plasma and 400 μL quench solution (acetonitrile containing internal standards (IS, 100 nM Alprazolam, 500 nM Labetalol and 2 μM Ketoprofen)) to precipitate protein and release compounds. Samples were vortexed for 2 minutes, followed by centrifugation at 20,000 g for 15 minutes at room temperature. The supernatant was diluted with ultrapure water and then used for LC-MS/MS analysis. Stability samples was prepared by transferring 50 μL of the spiked plasma to 0.6 mL tubes and incubated at 37° C., 5% CO2 for 0.5 and 6 hours. After incubation, 50 μL PBS (100 mM, pH7.4) and 400 μL quench solution were added to the stability samples. And then stability samples were treated the same way as the post-ultracentrifugation samples. The supernatant was diluted with ultrapure water and then used for LC-MS/MS analysis. 0.5 hour time point samples were also used as no-spun controls. Time 0 samples were prepared by transferring 50 μL spiked plasma to 0.6 mL tubes containing 50 μL PBS, followed by the addition of 400 μL quench solution to precipitate protein and release compound. And then these samples were treated the same way as the post-ultracentrifugation samples. The supernatant was diluted with ultrapure water and then used for LC-MS/MS analysis.
Data Analysis: All calculations were carried out using Microsoft Excel. The concentrations of test compound in plasma samples and post-ultracentrifugation plasma was determined from peak areas. The percentages of test compound bound was calculated as follows: […]
“+++” indicates a % bound value less than 50, “++” indicates a % bound value between 50 and 75, and “+” indicates a % bound value above 75.

[3] = Caco-2, pH 7.4, +0.5% BSA, read-out: Caco 2 apparent permeability Papp (A−B)
[4] = Caco-2, pH 7.4, +0.5% BSA, read-out: Caco 2 apparent permeability Papp (B−A)
[5] = Caco-2, pH 7.4, apical to basolateral, read-out: Caco2 Papp (AB)
[6] = Caco-2, pH 7.4, basolateral to apical, read-out: Caco2 Papp (BA)

| SMILES | Papp A→B at 2 h, 1 μM [1, 3] | Papp B→A at 2 h, 1 μM [1, 4] | Papp A→B at 2 h, 1 μM [1, 5] | Papp B→A at 2 h, 1 μM [1, 6] | fraction unbound at 30 min, 1 μM [2] | fraction unbound at 5.5 h, 1 μM [2] |
| --- | --- | --- | --- | --- | --- | --- |
| C[C@@H](CO)n1cnc2c(-c3cccnc3)nc(-c3ccc(C(F)(F)F)cn3)cc2c1=O [Compound 46, (S)-3-(1-hydroxypropan-2-yl)-8-(pyridin-3-yl)-6-(5-(trifluoromethyl)pyridin-2-yl)pyrido[3,4-d]pyrimidin-4(3H)-one] | 12.6 ×10⁻⁶ cm/s | 16.4 ×10⁻⁶ cm/s | > 10 ×10⁻⁶ cm/s | > 10 ×10⁻⁶ cm/s | < 0.25 | 0.108 |
| Cn1cc(-c2nc(-c3ccc(C(F)(F)F)nc3)cc3c(=O)n(CC(C)(C)O)cnc23)cn1 [Compound 60] |  |  | > 10 ×10⁻⁶ cm/s | 2 to 10 ×10⁻⁶ cm/s | < 0.25 |  |
| C[C@@H](CO)n1cnc2c(-c3cccnc3)nc(-c3ccc(C4CC4)nc3)cc2c1=O [Compound 74] |  |  | 2 to 10 ×10⁻⁶ cm/s | > 10 ×10⁻⁶ cm/s | < 0.25 |  |
| CC(C)(O)Cn1cnc2c(-c3cccnc3)nc(-c3ccc(C(F)(F)F)nc3)cc2c1=O [Compound 9] | 9.6 ×10⁻⁶ cm/s | 25 ×10⁻⁶ cm/s | 2 to 10 ×10⁻⁶ cm/s | > 10 ×10⁻⁶ cm/s | < 0.25 | 0.109 |
| CC(C)(O)Cn1cnc2c(-c3cccnc3)nc(-c3ccc(Cl)cc3)cc2c1=O [Compound 18] |  |  | 2 to 10 ×10⁻⁶ cm/s | 2 to 10 ×10⁻⁶ cm/s | < 0.25 |  |
| C[C@@H](CO)n1cnc2c(-c3cccc(F)c3)nc(-c3ccc(C(F)(F)F)nc3)cc2c1=O [Compound 8] |  |  | 2 to 10 ×10⁻⁶ cm/s | 2 to 10 ×10⁻⁶ cm/s | < 0.25 |  |
| Cn1cc(-c2nc(-c3ccc(C(F)(F)F)cn3)cc3c(=O)n(CC(C)(C)O)cnc23)cn1 [Compound 103, 3-(2-hydroxy-2-methylpropyl)-8-(1-methyl-1H-pyrazol-4-yl)-6-(5-(trifluoromethyl)pyridin-2-yl)pyrido[3,4-d]pyrimidin-4(3H)-one] |  |  | 2 to 10 ×10⁻⁶ cm/s | < 2 ×10⁻⁶ cm/s | < 0.25 |  |
| C[C@H](n1cnc2c(-c3cnn(C)c3)nc(-c3ccc(Cl)cc3)cc2c1=O)C(C)(C)O [Compound 30] |  |  | 2 to 10 ×10⁻⁶ cm/s | < 2 ×10⁻⁶ cm/s |  |  |
| C[C@H](n1cnc2c(-c3cccnc3)nc(-c3cccnc3)cc2c1=O)C(C)(C)O [Compound 34] |  |  | 2 to 10 ×10⁻⁶ cm/s | > 10 ×10⁻⁶ cm/s |  |  |
| C[C@@H](CO)n1cnc2c(-c3cnn(C)c3)nc(-c3ccc(C(F)(F)F)nc3)cc2c1=O [Compound 68] |  |  |  |  | < 0.25 |  |
| CC(C)(O)Cn1cnc2c(-c3cccnc3)nc(-c3ccc(C(F)(F)F)cn3)cc2c1=O [Compound 105] |  |  | > 10 ×10⁻⁶ cm/s | 2 to 10 ×10⁻⁶ cm/s | < 0.25 |  |
